Reference: PubChem BioAssay (NCI)
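Each compound was tested at five concentrations against cells in 96-well plates for 48 hours. TGI is the concentration that stops growth completely.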

Tests used:
Test in all cases: growth of human tumour cells (NCI), 48 h
HOP-62 NSCLC = tested on: HOP-62 NSCLC
K-562 leukemia = tested on: K-562 leukemia
MALME-3M melanoma = tested on: MALME-3M melanoma
MDA-MB-231 breast = tested on: MDA-MB-231 breast
MDA-MB-435 = tested on: MDA-MB-435
OVCAR-3 ovarian = tested on: OVCAR-3 ovarian
RPMI-8226 leukemia = tested on: RPMI-8226 leukemia
SF-268 CNS = tested on: SF-268 CNS
SK-MEL-28 melanoma = tested on: SK-MEL-28 melanoma
UO-31 renal = tested on: UO-31 renal

Row | Structure (SMILES) | TGI (HOP-62 NSCLC) | TGI (K-562 leukemia) | TGI (MALME-3M melanoma) | TGI (MDA-MB-231 breast) | TGI (MDA-MB-435) | TGI (OVCAR-3 ovarian) | TGI (RPMI-8226 leukemia) | TGI (SF-268 CNS) | TGI (SK-MEL-28 melanoma) | TGI (UO-31 renal)
1 | COc1cc(-c2ccccc2N)c2cccnc2c1OC | 19 µM | 20.5 µM | 30.4 µM | 20.6 µM | 21.1 µM | 16.1 µM | 14.8 µM | 12.8 µM | 32.8 µM | 15 µM
2 | CCN(CC)c1ccc(/C=C/C=C2C(=O)NC(=S)NC2=O)cc1 | 47.9 µM | > 75.1 µM | > 100 µM | > 78.6 µM | 34.7 µM | > 72.6 µM | > 100 µM | > 100 µM | > 100 µM | > 100 µM
3 | CN(C)c1cccc(NC2=NCCO2)c1 | > 100 µM | > 100 µM | > 100 µM | > 100 µM | 42.9 µM | > 100 µM | > 100 µM | > 100 µM | > 100 µM | > 100 µM
4 | C[Si](C)(C)C1=C([Si](C)(C)C)C(Cl)(Cl)C1=O | 41.4 µM | 2.88 µM | 4.22 µM | 7.85 µM | 7.22 µM | 8.15 µM | 3.99 µM | 21.1 µM | 9.29 µM | 8.45 µM
5 | COc1ccc(C(OCC2OC(n3ccc(NC(=O)c4ccccc4)nc3=O)CC2OP2(=S)SCCS2)(c2ccccc2)c2ccc(OC)cc2)cc1 (stereo not given) | 43.9 µM | > 100 µM | 70.2 µM | > 100 µM | > 100 µM | 58.5 µM | > 100 µM | 44.1 µM | 90.3 µM | > 100 µM
6 | Cc1ccc2c(c1)C(=O)C(C1OC(=O)c3ccccc31)C2 (stereo not given) | > 100 µM | > 100 µM | > 100 µM | > 100 µM | > 100 µM | > 100 µM | > 100 µM | > 100 µM | > 100 µM | > 100 µM
7 | O=[N+]([O-])c1ccc(O)c(/C=N/NC(=S)N2CCCCC2)c1 | > 100 µM | > 100 µM | 10.3 µM | 52.2 µM | > 83 µM | > 100 µM | > 52.4 µM | 24.6 µM | > 100 µM | 4.58 µM
8 | O=C1Nc2ccccc2/C1=c1\[nH]c(=O)/c(=C\c2ccc(OCc3ccccc3)cn2)[nH]c1=O | 65.7 µM | 75.9 µM | > 100 µM | 91.7 µM | > 100 µM | > 100 µM | > 100 µM | > 100 µM | > 100 µM | 0.848 µM
9 | CCOc1cc(NC(C)=O)ccc1C(=O)NN1C(=O)CSC1c1ccccc1 (stereo not given) | > 100 µM | > 100 µM | > 100 µM | > 100 µM | > 100 µM | > 100 µM | > 100 µM | > 100 µM | > 100 µM | > 100 µM
10 | CSC1NC(c2ccc(Cl)cc2)=C(C#N)C(=O)N1C1OCC(OC(C)=O)C(OC(C)=O)C1OC(C)=O (stereo not given) | > 100 µM | > 100 µM | > 100 µM | > 100 µM | > 100 µM | > 100 µM | > 100 µM | > 100 µM | > 100 µM | > 100 µM
11 | c1cnc(N2CCN(Cc3c[nH]c4ccccc34)CC2)nc1 | > 100 µM | > 100 µM | > 100 µM | > 100 µM | > 100 µM | > 100 µM | 63.7 µM | > 100 µM | > 100 µM | > 100 µM
12 | CC(=O)N(O)c1ccc(-c2nc3ccccc3s2)cc1 | > 100 µM | > 100 µM | 88.9 µM | > 100 µM | > 100 µM | > 100 µM | > 100 µM | > 100 µM | > 100 µM | > 100 µM
13 | C/C1=C\C=C(\C(C)C)CC/C(C(=O)O)=C\CC/C(C)=C/CC1 | 48 µM | 74.8 µM | 52.2 µM | 39.2 µM | 56.4 µM | 31.4 µM | 42.2 µM | > 100 µM | 56.3 µM | 53.8 µM
14 | NC(Cc1ccc(S(=O)(=O)O)cc1)C(=O)NC(Cc1ccc(S(=O)(=O)O)cc1)C(=O)O (stereo not given) | > 100 µM | > 100 µM | > 100 µM | > 100 µM | > 100 µM | > 100 µM | > 100 µM | > 100 µM | > 100 µM | > 100 µM
15 | CC(=N\N)/C(C)=N/N=C(C)/C(C)=N/N=C(C)/C(C)=N/N | > 100 µM | > 100 µM | > 100 µM | > 100 µM | > 100 µM | > 100 µM | > 100 µM | > 100 µM | > 100 µM | > 100 µM
16 | COc1ccccc1C[C@@H]1OC2(C=CC(=O)C=C2)O[C@H]1Cc1ccccc1OC | 15.4 µM | > 50 µM | 21.3 µM | 38.6 µM | 38.2 µM | 18.9 µM | 6.24 µM | 16.9 µM | 16.1 µM | 12.7 µM
17 | CCOC(=O)Oc1ccc2c(c1)c(=O)c1c(NCCN(CC)CC)ccc3nnn2c31 | 7.22 µM | > 36.3 µM | 22 µM | 17.6 µM | 16.4 µM | 19.7 µM | 4.86 µM | 17.1 µM | 24.1 µM | 1.24 µM
18 | CCc1nc2ccc(NCCN(C)C)c3c(=O)c4ccccc4n1c23 | 5.12 µM | 22 µM | 7.47 µM | 2.36 µM | 2.4 µM | 4.45 µM | 7.78 µM | 5.36 µM | 9.43 µM | 10 µM
19 | CC1(C)CC(=O)C2=C(C1)OC1=C(CC(C)(C)CC1=O)C2c1ccccc1[N+](=O)[O-] (stereo not given) | > 100 µM | > 100 µM | > 100 µM | > 100 µM | > 100 µM | > 100 µM | > 100 µM | > 100 µM | > 100 µM | 3.69 µM
20 | CN(C)c1cc[n+](-c2nc(/N=C(\[O-])C(F)(F)F)nc3c2ncn3C2CC(O)C(CO)O2)cc1 (stereo not given) | > 100 µM | > 100 µM | > 100 µM | > 100 µM | > 100 µM | > 100 µM | > 100 µM | > 100 µM | > 100 µM | > 100 µM
21 | CC1CC(=O)N(N(C)C)C(C#N)(C#N)C1(C#N)C#N (stereo not given) | > 60.6 µM | > 66.3 µM | 29.3 µM | 28.9 µM | 32.9 µM | 44.6 µM | 32 µM | > 58.9 µM | 34.3 µM | 31.3 µM
